In patent US20260325533A1, “CDK INHIBITOR COMPOUNDS” (ALEKSIA THERAPEUTICS, INC., priority 2023, published 2026) one finds IC50 data, which are given here for 18 molecules.

Where two headings read alike, the source gives them in different places. Bounds are passed on as bounds.

Holding throughout (assay type): biochemical
The target in experiment [1] is CDK1/CCNB1 (Homo sapiens, UniProt P06493). The experiment can be described thus: CDK1 homogeneous time-resolved fluorescence (HTRF) kinase assay. The note with it: CDK1/CCNB. In outline:
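CDK1/CCNB1 0.5 nM + cpd, 20 min 23 °C; add 1 mM ATP, 50 nM ULight-4E-BP1 peptide, 60 min 23 °C; stop 10 mM EDTA; 2 nM Eu-Ab, 60 min; HTRF 665 nm. 11-pt half-log, top 10 μM typical; IC50.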
A general note: In TR-FRET formats the signal depends on donor and acceptor labels being close together.

Experiment [2] concerns the target CDK6/CCND1 (Homo sapiens, UniProt Q00534). The experiment can be described thus: CDK6 homogeneous time-resolved fluorescence (HTRF) kinase assay. Particulars: CDK6/CCND, 1 mM ATP. The method in brief: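 1 nM enzyme, 1 mM ATP, 50 nM ULight-4E-BP1 (Thr37/46) peptide, 1% DMSO; 20 min compound preincubation, 60 min reaction, 23 °C. EDTA stop, 2 nM Eu-anti-phospho-4E-BP1 antibody 60 min. TR-FRET 665 nm (or 665/615 ratio); IC50 from 11-point half-log titration, top 10 μM.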

For experiment [3], the target named is CDK4/CCND3 (Homo sapiens, UniProt P11802). The experiment can be described thus: CDK4 homogeneous time-resolved fluorescence (HTRF) kinase assay. The note with it: CDK4/CCND. The method in brief:
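Compounds were preincubated with 1.5 nM CDK4/CCND3 for 20 min at 23 °C in HEPES buffer (pH not given), then reacted 60 min with 1 mM ATP and 50 nM ULight-4E-BP1 (Thr37/46) peptide. EDTA stop, Eu-anti-phospho-4E-BP1 detection; 665/615 nm ratio; IC50 from 11-point half-log titrations from 10 μM.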

The target of experiment [4] is CDK2/CCNE1 (Homo sapiens, UniProt P24941). The experiment in a line: CDK2 homogeneous time-resolved fluorescence (HTRF) kinase assay. The note with it: CDK2/CCNE. In outline: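 Compounds were titrated 11-point, half-log from typically 10 μM against 3 nM CDK2/cyclin E1 at 1 mM ATP, with a 20 min enzyme preincubation. Phosphorylation of 50 nM ULight-4E-BP1 peptide over 60 min at 23 °C was detected by europium anti-phospho antibody TR-FRET.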

[5] abbreviates: >250 nM, read-out: CDK1/CCNB IC50 >250 nM.
Setting [6] is: >250 nM, read-out: CDK6/CCND IC50, >250 nM.
Where [7] appears, read: >250 nM, read-out: CDK4/CCND IC50, >250 nM.
Setting [8] is: >250 nM, read-out: CDK2/CCNE IC50, >250 nM.
[9] abbreviates: 25-250 nM, read-out: CDK6/CCND IC50, 25-250 nM.
Setting [10] is: 25-250 nM, read-out: CDK4/CCND IC50, 25-250 nM.
[11] abbreviates: <25 nM, read-out: CDK2/CCNE IC50, <25 nM.
The mark [12] stands for this setting: 25-250 nM, read-out: CDK2/CCNE IC50, 25-250 nM.

Chain of CDK6/CCND1 (Q00534 whole entry): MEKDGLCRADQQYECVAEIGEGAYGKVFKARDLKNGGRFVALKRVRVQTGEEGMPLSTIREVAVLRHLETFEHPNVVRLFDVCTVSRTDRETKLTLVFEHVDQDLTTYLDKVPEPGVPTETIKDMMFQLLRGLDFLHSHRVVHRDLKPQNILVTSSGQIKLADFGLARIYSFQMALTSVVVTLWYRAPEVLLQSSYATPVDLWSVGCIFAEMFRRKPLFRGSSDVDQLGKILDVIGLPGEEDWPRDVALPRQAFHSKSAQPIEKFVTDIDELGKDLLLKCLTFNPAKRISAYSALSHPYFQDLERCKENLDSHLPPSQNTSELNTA
Chain of CDK6/CCND1 (P24385 whole entry partner): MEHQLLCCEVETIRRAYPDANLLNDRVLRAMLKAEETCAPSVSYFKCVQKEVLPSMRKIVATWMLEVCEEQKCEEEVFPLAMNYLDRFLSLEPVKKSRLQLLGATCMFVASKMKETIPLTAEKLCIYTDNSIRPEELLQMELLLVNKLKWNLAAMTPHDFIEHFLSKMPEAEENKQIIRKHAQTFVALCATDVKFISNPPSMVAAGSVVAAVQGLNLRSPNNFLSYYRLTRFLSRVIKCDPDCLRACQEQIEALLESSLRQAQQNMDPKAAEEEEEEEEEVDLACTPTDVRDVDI
Chain of CDK1/CCNB1 (P06493 whole entry): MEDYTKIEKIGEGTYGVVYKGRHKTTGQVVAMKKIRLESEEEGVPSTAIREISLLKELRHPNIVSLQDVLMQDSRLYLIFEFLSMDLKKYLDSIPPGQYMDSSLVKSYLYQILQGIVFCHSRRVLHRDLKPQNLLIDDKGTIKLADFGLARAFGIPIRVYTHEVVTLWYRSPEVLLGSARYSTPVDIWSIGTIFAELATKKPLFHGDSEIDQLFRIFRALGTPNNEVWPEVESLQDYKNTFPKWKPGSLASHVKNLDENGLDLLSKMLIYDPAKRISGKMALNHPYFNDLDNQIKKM
Chain of CDK1/CCNB1 (P14635 whole entry partner): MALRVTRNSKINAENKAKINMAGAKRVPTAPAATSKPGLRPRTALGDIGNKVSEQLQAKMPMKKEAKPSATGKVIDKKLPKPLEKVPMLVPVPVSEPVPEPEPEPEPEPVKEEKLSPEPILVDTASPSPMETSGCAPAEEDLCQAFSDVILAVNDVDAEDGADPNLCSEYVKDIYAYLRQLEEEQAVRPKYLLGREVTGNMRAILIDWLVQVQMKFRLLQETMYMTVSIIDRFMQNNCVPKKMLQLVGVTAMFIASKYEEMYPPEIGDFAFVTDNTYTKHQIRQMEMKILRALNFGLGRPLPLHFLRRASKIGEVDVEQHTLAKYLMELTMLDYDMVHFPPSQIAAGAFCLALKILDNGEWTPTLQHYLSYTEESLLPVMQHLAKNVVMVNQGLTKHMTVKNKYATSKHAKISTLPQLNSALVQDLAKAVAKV
Chain of CDK4/CCND3 (P11802 whole entry): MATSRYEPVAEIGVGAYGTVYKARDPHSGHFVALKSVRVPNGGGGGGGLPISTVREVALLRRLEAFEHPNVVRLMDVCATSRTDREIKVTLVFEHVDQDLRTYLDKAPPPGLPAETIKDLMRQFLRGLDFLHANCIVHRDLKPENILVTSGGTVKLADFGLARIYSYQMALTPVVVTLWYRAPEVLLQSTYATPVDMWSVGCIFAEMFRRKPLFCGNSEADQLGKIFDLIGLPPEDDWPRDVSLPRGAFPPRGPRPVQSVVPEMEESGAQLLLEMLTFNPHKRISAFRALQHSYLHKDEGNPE
Chain of CDK4/CCND3 (P30281 whole entry partner): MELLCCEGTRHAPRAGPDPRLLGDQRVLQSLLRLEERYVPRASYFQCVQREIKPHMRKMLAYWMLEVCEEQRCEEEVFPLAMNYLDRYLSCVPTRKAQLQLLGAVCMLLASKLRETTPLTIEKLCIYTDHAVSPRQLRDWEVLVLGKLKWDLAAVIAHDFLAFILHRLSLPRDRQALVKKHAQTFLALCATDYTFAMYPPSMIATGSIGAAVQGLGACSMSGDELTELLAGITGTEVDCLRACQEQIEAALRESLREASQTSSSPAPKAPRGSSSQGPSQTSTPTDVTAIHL

Take `C[C@@H]1CN(C)CCN1c1cc(Nc2cc3c(C#Cc4ccc(=O)[nH]n4)nccc3cn2)cnc1O` [Ex 840, (R)-6-((7-((5-(2,4-dimethylpiperazin-1-yl)-6-hydroxypyridin-3-yl)amino)-2,6-naphthyridin-1-yl)ethynyl)pyridazin-3(2H)-one]: the IC50 in experiment [1] (setting [5]), in experiment [2] (setting [6]), in experiment [3] (setting [7]) and in experiment [4] (setting [8]) was over 250 nM throughout.

For the molecule `Cc1ccnc(NS(=O)(=O)c2ccc(Nc3cc4c(-c5ccc6c(cnn6CC(C)(C)O)c5C)nccc4cn3)cc2)c1` [Ex 841, 4-((5-(1-(2-hydroxy-2-methylpropyl)-4-methyl-1H-indazol-5-yl)-2,6-naphthyridin-3-yl)amino)-N-(4-methylpyridin-2-yl)benzenesulfonamide], the IC50 in experiment [1] (setting [5]) was over 250 nM; in experiment [2] (setting [9]), 25 to 250 nM; in experiment [3] (setting [10]), 25 to 250 nM; in experiment [4] (setting [11]), under 25 nM.

As for `Cc1c(-c2nccc3cnc(Nc4ccc(S(=O)(=O)Nc5ccc(N6CCOCC6)nn5)cc4)cc23)ccc2c1cnn2CC(C)(C)O` [Ex 842, 4-((5-(1-(2-hydroxy-2-methylpropyl)-4-methyl-1H-indazol-5-yl)-2,6-naphthyridin-3-yl)amino)-N-(6-morpholinopyridazin-3-yl)benzenesulfonamide], the IC50 in experiment [1] (25-250 nM, read-out: CDK1/CCNB IC50, 25-250 nM) is 25 to 250 nM; in experiment [2] (setting [9]), 25 to 250 nM; in experiment [3] (setting [10]), 25 to 250 nM; in experiment [4] (setting [11]) it was under 25 nM.

As for `Cc1nn(C)cc1S(=O)(=O)Nc1ccc(Nc2cc3c(-c4ccc5c(cnn5CC(C)(C)O)c4C)nccc3cn2)cc1` [Ex 843, N-(4-((5-(1-(2-hydroxy-2-methylpropyl)-4-methyl-1H-indazol-5-yl)-2,6-naphthyridin-3-yl)amino)phenyl)-1,3-dimethyl-1H-pyrazole-4-sulfonamide], the IC50 in experiment [1] (setting [5]) is over 250 nM; in experiment [2] (setting [9]), 25 to 250 nM; in experiment [3] (setting [10]) it was 25 to 250 nM; in experiment [4] (setting [11]) it was under 25 nM.

On to `Cc1c(-c2nccc3cnc(Nc4ccc(S(C)(=O)=O)c(C(F)(F)F)c4)cc23)ccc2c1cnn2CC(C)(C)O` [Ex 844, 2-methyl-1-(4-methyl-5-(7-((4-(methylsulfonyl)-3-(trifluoromethyl)phenyl)amino)-2,6-naphthyridin-1-yl)-1H-indazol-1-yl)propan-2-ol], for which the IC50 in experiment [1] (setting [5]) was over 250 nM; in experiment [2] (setting [6]), over 250 nM; in experiment [3] (setting [7]), over 250 nM; in experiment [4] (setting [12]), 25 to 250 nM.

Consider `Cc1cc(S(C)(=O)=O)ccc1Nc1cc2c(-c3ccc4c(cnn4CC(C)(C)O)c3C)nccc2cn1` [Ex 845, 2-methyl-1-(4-methyl-5-(7-((2-methyl-4-(methylsulfonyl)phenyl)amino)-2,6-naphthyridin-1-yl)-1H-indazol-1-yl)propan-2-ol], for which the IC50 in experiment [1] (setting [5]) was over 250 nM; in experiment [2] (setting [9]) it was 25 to 250 nM; in experiment [3] (setting [7]), over 250 nM; in experiment [4] (setting [11]) it was under 25 nM.

As to `Cc1c(-c2nccc3cnc(Nc4ccc(S(C)(=O)=O)cc4F)cc23)ccc2c1cnn2CC(C)(C)O` [Ex 846, 1-(5-(7-((2-fluoro-4-(methylsulfonyl)phenyl)amino)-2,6-naphthyridin-1-yl)-4-methyl-1H-indazol-1-yl)-2-methylpropan-2-ol], the IC50 in experiment [1] (setting [5]) was over 250 nM; in experiment [2] (setting [6]) it was over 250 nM; in experiment [3] (setting [7]), over 250 nM; in experiment [4] (setting [11]), under 25 nM.

With `Cc1c(-c2nccc3cnc(Nc4ccc(S(C)(=O)=O)cc4Cl)cc23)ccc2c1cnn2CC(C)(C)O` [Ex 847, 1-(5-(7-((2-chloro-4-(methylsulfonyl)phenyl)amino)-2,6-naphthyridin-1-yl)-4-methyl-1H-indazol-1-yl)-2-methylpropan-2-ol], the IC50 in experiment [1] (setting [5]) was over 250 nM; in experiment [2] (setting [6]), over 250 nM; in experiment [3] (setting [7]), over 250 nM; in experiment [4] (setting [12]) it was 25 to 250 nM.

In the case of `Cc1c(-c2nccc3cnc(Nc4ccc(S(C)(=O)=O)cn4)cc23)ccc2c1cnn2CC(C)(C)O` [Ex 848, 2-methyl-1-(4-methyl-5-(7-((5-(methylsulfonyl)pyridin-2-yl)amino)-2,6-naphthyridin-1-yl)-1H-indazol-1-yl)propan-2-ol], the IC50 in experiment [1] (setting [5]) was over 250 nM; in experiment [2] (setting [9]), 25 to 250 nM; in experiment [3] (setting [10]), 25 to 250 nM; in experiment [4] (setting [11]), under 25 nM.

As for `Cc1c(-c2nccc3cnc(Nc4ccc(S(=O)(=O)Nc5ncc(N6CCN(C)CC6)cn5)cc4)cc23)ccc2c1cnn2CC(C)(C)O` [Ex 849, 4-((5-(1-(2-hydroxy-2-methylpropyl)-4-methyl-1H-indazol-5-yl)-2,6-naphthyridin-3-yl)amino)-N-(5-(4-methylpiperazin-1-yl)pyrimidin-2-yl)benzenesulfonamide], the IC50 was over 250 nM in experiment [1] (setting [5]), 25 to 250 nM in experiment [2] (setting [9]), 25 to 250 nM in experiment [3] (setting [10]) and under 25 nM in experiment [4] (setting [11]).

`Cc1c(-c2nccc3cnc(Nc4ccc(S(=O)(=O)Nc5ncc(N6CCOCC6)cn5)cc4)cc23)ccc2c1cnn2CC(C)(C)O` [Ex 850, 4-((5-(1-(2-hydroxy-2-methylpropyl)-4-methyl-1H-indazol-5-yl)-2,6-naphthyridin-3-yl)amino)-N-(5-morpholinopyrimidin-2-yl)benzenesulfonamide]: the IC50 in experiment [1] (setting [5]) is over 250 nM; in experiment [2] (setting [6]), over 250 nM; in experiment [3] (setting [7]) it was over 250 nM; in experiment [4] (setting [11]), under 25 nM.

Consider `CCOC(=O)c1cn2cc(C#Cc3nccc4cnc(Nc5ccc(S(C)(=O)=O)cc5)cc34)ccc2n1` [Ex 851, ethyl6-((7-((4-(methylsulfonyl)phenyl)amino)-2,6-naphthyridin-1-yl)ethynyl)imidazo[1,2-a]pyridine-2-carboxylate], for which the IC50 in experiment [1] (setting [5]), in experiment [2] (setting [6]), in experiment [3] (setting [7]) and in experiment [4] (setting [8]) was over 250 nM each time.

`C[C@@H]1CN(c2cc(Nc3cc4c(C#Cc5ccc(=O)[nH]n5)nccc4cn3)cnc2O)CCN1C` [Ex 853, (R)-6-((7-((5-(3,4-dimethylpiperazin-1-yl)-6-hydroxypyridin-3-yl)amino)-2,6-naphthyridin-1-yl)ethynyl)pyridazin-3(2H)-one absolute]: the IC50 in experiment [1] (setting [5]) was over 250 nM; in experiment [2] (setting [6]) it was over 250 nM; in experiment [3] (setting [7]), over 250 nM; in experiment [4] (setting [12]), 25 to 250 nM.

As to `CC#Cc1nccc2cnc(Nc3ccc(S(=O)(=O)Nc4nccn4C)cc3)cc12` [Ex 854, N-(1-methyl-1H-imidazol-2-yl)-4-((5-(prop-1-yn-1-yl)-2,6-naphthyridin-3-yl)amino)benzenesulfonamide], the IC50 in experiment [1] (setting [5]) is over 250 nM; in experiment [2] (setting [6]) it was over 250 nM; in experiment [3] (setting [7]), over 250 nM; in experiment [4] (setting [11]) it was under 25 nM.

In the case of `Cc1c(-c2nccc3cnc(Nc4ccc(S(=O)(=O)Nc5nncn5C)cc4)cc23)ccc2c1cnn2CC(C)(C)O` [Ex 855, 4-((5-(1-(2-hydroxy-2-methylpropyl)-4-methyl-1H-indazol-5-yl)-2,6-naphthyridin-3-yl)amino)-N-(4-methyl-4H-1,2,4-triazol-3-yl)benzenesulfonamide], the IC50 in experiment [1] (setting [5]) was over 250 nM; in experiment [2] (setting [6]), over 250 nM; in experiment [3] (setting [7]), over 250 nM; in experiment [4] (setting [12]), 25 to 250 nM.

For `Cn1ncc2cc(C#Cc3nccc4cnc(Nc5ccc(S(C)(=O)=O)cc5)cc34)ccc21` [Ex 856, 5-((1-methyl-1H-indazol-5-yl)ethynyl)-N-(4-(methylsulfonyl)phenyl)-2,6-naphthyridin-3-amine], the IC50 in experiment [1] (setting [5]) was over 250 nM; in experiment [2] (setting [6]), over 250 nM; in experiment [3] (setting [7]), over 250 nM; in experiment [4] (setting [12]) it was 25 to 250 nM.

Regarding `CS(=O)(=O)c1ccc(Nc2cc3c(C#Cc4ccc5c(c4)OCO5)nccc3cn2)cc1` [Ex 857, 5-(benzo[d][1,3]dioxol-5-ylethynyl)-N-(4-(methylsulfonyl)phenyl)-2,6-naphthyridin-3-amine], the IC50 in experiment [1] (setting [5]) was over 250 nM; in experiment [2] (setting [6]), over 250 nM; in experiment [3] (setting [7]), over 250 nM; in experiment [4] (setting [12]) it was 25 to 250 nM.

As to `CSc1ccc(C#Cc2nccc3cnc(Nc4ccc(S(C)(=O)=O)cc4)cc23)cc1` [Ex 858, N-(4-(methylsulfonyl)phenyl)-5-((4-(methylthio)phenyl)ethynyl)-2,6-naphthyridin-3-amine], the IC50 was over 250 nM in experiment [1] (setting [5]), over 250 nM in experiment [2] (setting [6]), over 250 nM in experiment [3] (setting [7]) and 25 to 250 nM in experiment [4] (setting [12]).
